In one assay the target is T1, full length human TREX1 (Homo sapiens, UniProt Q9NSU2).
T1 construct: N-terminally His-Tev tagged full length human TREX1; His-TEV (His tag with TEV site) (N); made in house; host or cells: E. coli
T1 sequence (Q9NSU2 1-314): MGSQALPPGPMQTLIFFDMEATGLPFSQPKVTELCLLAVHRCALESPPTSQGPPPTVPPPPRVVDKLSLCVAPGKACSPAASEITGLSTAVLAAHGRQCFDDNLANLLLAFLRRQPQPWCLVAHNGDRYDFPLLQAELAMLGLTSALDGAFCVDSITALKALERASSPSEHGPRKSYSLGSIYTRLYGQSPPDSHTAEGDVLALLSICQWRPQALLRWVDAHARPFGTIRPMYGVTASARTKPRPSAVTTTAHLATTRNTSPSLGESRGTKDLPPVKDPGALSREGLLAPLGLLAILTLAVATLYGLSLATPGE
Kind of assay: TREX1 Biochemical Assay (fluorescence, dsDNA substrate degradation). The settings on record: 150 pM TREX1, 60 nM dsDNA substrate, 25 minutes at room temperature. In outline: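 N-terminally His-Tev-tagged TREX1 was expressed in E. coli; 150 pM enzyme was run with 60 nM TEX615/quencher-labelled dsDNA at pH 7.4 in 1.0% DMSO for 25 min at room temperature, then quenched with EDTA. Fluorescence at 615 nm (570 nm excitation) was normalised to pre-quenched and no-inhibitor controls, and IC50 came from four-parameter fits.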

The target in assay [1] is T2, human TREX2 (residues M44-A279) (Homo sapiens, UniProt Q9BQ50).
T2 construct: human TREX2 (residues M44-A279, expressed in E. coli); His-TEV (His tag with TEV site) (N); made in house; host or cells: E. coli
T2 sequence (Q9BQ50 44-279 isoform Q9BQ50-1): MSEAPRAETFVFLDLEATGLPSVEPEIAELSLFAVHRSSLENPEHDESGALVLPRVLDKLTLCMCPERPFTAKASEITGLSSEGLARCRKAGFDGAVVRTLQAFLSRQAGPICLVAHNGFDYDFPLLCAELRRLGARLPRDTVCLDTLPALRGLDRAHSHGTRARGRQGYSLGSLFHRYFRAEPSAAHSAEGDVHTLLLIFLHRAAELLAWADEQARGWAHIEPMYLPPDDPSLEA
Kind of assay: TREX2 Biochemical Assay (fluorescence, dsDNA substrate degradation). As to conditions: 2.5 nM TREX2, 60 nM dsDNA substrate, 25 minutes at room temperature. In outline: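 Final conditions: 2.5 nM His-Tev-tagged TREX2 (E. coli-expressed), 60 nM fluorophore/quencher-labelled dsDNA, 50 mM Tris pH 7.4, 150 mM NaCl, 100 mM MgCl2, 1% DMSO; 10-point compound dose-response. Incubated 25 min at room temperature, then EDTA-quenched; fluorescence read at ex 570/em 615 nm. IC50 from four-parameter fit against pre-quenched and no-inhibitor controls.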

The subject of the next assay is HCT116 dual cells. Description: HCT116 Cell Assay (Lucia luciferase reporter of Type I interferon induction). Format: cell-based, human. As to conditions: Homo sapiens, HCT-116, 4 h pre-treatment, pBR322/BstNI DNA transfection, Lucia luciferase at 48 h; relative to 10 uM compound 39. In outline: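 Cells were pretreated with compound for 4 h (≤0.1% DMSO), then transfected with pBR322/BstNI DNA (1.25 ug/mL; 100 ng/well) using Lipofectamine LTX. Secreted Lucia luciferase in the medium was read after 48 h at 37 °C. EC50 came from four-parameter fits normalised to no-inhibitor and 10 uM reference-inhibitor controls.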

Molecules are shown by their SMILES.

Consider `CCN(Cc1ccccc1)c1nc(C(=O)Nc2cnoc2)c(O)c(=O)n1C` [Example 13, 2-(benzyl(ethyl)amino)-5-hydroxy-N-(isoxazol-4-yl)-1-methyl-6-oxo-1,6-dihydropyrimidine-4-carboxamide], for which the IC50 was less than 0.1 µM at full length human TREX1 and 1 to 10 µM in assay [1]. The EC50 in the assay on HCT116 dual cells was 10 to 100 µM.

For the compound `CN(Cc1ccc2ccccc2c1)c1nc(C(=O)Nc2cnoc2)c(O)c(=O)n1C` [Example 14], the IC50 on full length human TREX1 is less than 0.1 µM; in assay [1] it was 1 to 10 µM. Further, the EC50 with HCT116 dual cells was in the range of 10 to 100 µM.

As to `CN(Cc1cccc2ccccc12)c1nc(C(=O)Nc2cnoc2)c(O)c(=O)n1C` [Example 15], the IC50 against full length human TREX1 was less than 0.1 µM; in assay [1], 1 to 10 µM. In addition, the EC50 in the assay with HCT116 dual cells is 1 to 10 µM.

With `Cn1c(N(CCOc2ccccc2)Cc2ccccc2)nc(C(=O)Nc2cnoc2)c(O)c1=O` [Example 16], the IC50 is less than 0.1 µM on full length human TREX1 and less than 1 µM in assay [1]. The EC50 with HCT116 dual cells was in the range of 10 to 100 µM.

For the compound `CN(Cc1ccccc1-c1ccccc1)c1nc(C(=O)Nc2cnoc2)c(O)c(=O)n1C` [Example 18], the figures for the IC50 (against full length human TREX1; in assay [1]) were less than 0.1 µM and 1 to 10 µM, respectively. Also, the EC50 with HCT116 dual cells is 10 to 100 µM.

With `CN(Cc1cccc(-c2cnn(C)c2)c1)c1nc(C(=O)Nc2cnoc2)c(O)c(=O)n1C` [Example 19], the IC50 at full length human TREX1 was less than 0.1 µM; in assay [1], 1 to 10 µM. For the same compound, in the assay with HCT116 dual cells, the EC50 is 10 to 100 µM.

For the compound `CN(Cc1ccccn1)c1nc(C(=O)Nc2cnoc2)c(O)c(=O)n1C` [Example 22], the IC50 is 0.1 to 1 µM against full length human TREX1 and 1 to 10 µM in assay [1]. Moreover, in the assay on HCT116 dual cells, the EC50 is 10 to 100 µM.

Regarding `CN(Cc1ccc(-c2cnn(C)c2)cc1)c1nc(C(=O)Nc2cnoc2)c(O)c(=O)n1C` [Example 25], the IC50 against full length human TREX1 was less than 0.1 µM; in assay [1], 1 to 10 µM. Moreover, the EC50 in the assay on HCT116 dual cells lay in the range of 10 to 100 µM.

With `C[C@H](c1ccccc1)N(C)c1nc(C(=O)Nc2cnoc2)c(O)c(=O)n1C` [Example 27], the figures for the IC50 (at full length human TREX1; in assay [1]) were less than 0.1 µM and less than 1 µM, respectively. In addition, the EC50 with HCT116 dual cells was 1 to 10 µM.

`C[C@@H](c1ccccc1)N(C)c1nc(C(=O)Nc2cnoc2)c(O)c(=O)n1C` [Example 28]: the half-maximal inhibitory concentration (IC50) was less than 0.1 µM on full length human TREX1 and 1 to 10 µM in assay [1]. Also, in the assay on HCT116 dual cells, the EC50 lay in the range of 1 to 10 µM.

As for `CC(C)N(Cc1ccccc1)c1nc(C(=O)Nc2cnoc2)c(O)c(=O)n1C` [Example 29], the figures for the half-maximal inhibitory concentration (IC50) (at full length human TREX1; in assay [1]) were less than 0.1 µM and 1 to 10 µM, respectively. Also, the EC50 with HCT116 dual cells was in the range of 10 to 100 µM.

Regarding `CN(c1nc(C(=O)Nc2cnoc2)c(O)c(=O)n1C)C(c1ccccc1)c1ccccc1` [Example 30], the half-maximal inhibitory concentration (IC50) against full length human TREX1 is less than 0.1 µM; in assay [1], less than 1 µM. Besides, the EC50 in the assay with HCT116 dual cells is less than 1 µM.

For `CN(Cc1cccc2c1cnn2C)c1nc(C(=O)Nc2cnoc2)c(O)c(=O)n1C` [Example 31], the figures for the IC50 (at full length human TREX1; in assay [1]) were less than 0.1 µM and 1 to 10 µM, respectively. For the same compound, in the assay with HCT116 dual cells, the EC50 fell in the range of 1 to 10 µM.

Turning to `CN(Cc1cccnc1)c1nc(C(=O)Nc2cnoc2)c(O)c(=O)n1C` [Example 32], the IC50 is less than 0.1 µM against full length human TREX1 and 1 to 10 µM in assay [1]. Besides, the EC50 with HCT116 dual cells was 10 to 100 µM.

`Cc1c(-c2ccncc2CN(C)c2nc(C(=O)Nc3cnoc3)c(O)c(=O)n2C)cnn1C` [Example 35]: the values for the IC50 (at full length human TREX1; in assay [1]) were less than 0.1 µM and 1 to 10 µM, respectively. Besides, in the assay on HCT116 dual cells, the EC50 is 10 to 100 µM.

For `CN(c1nc(C(=O)Nc2cnoc2)c(O)c(=O)n1C)C(C)(c1ccccc1)c1ccccc1` [Example 52], the IC50 is less than 0.1 µM against full length human TREX1 and 1 to 10 µM in assay [1]. In addition, in the assay with HCT116 dual cells, the concentration for a half-maximal effect (EC50) was in the range of 10 to 100 µM.

On to `CN(Cc1ccccc1Cl)c1nc(C(=O)Nc2cnoc2)c(O)c(=O)n1C` [Example 74], for which the figures for the half-inhibitory concentration (IC50) (against full length human TREX1; in assay [1]) were less than 0.1 µM and 1 to 10 µM, respectively. The EC50 in the assay with HCT116 dual cells was 1 to 10 µM.

In the case of `CN(Cc1ccccc1-c1cnn(C)c1)c1nc(C(=O)Nc2cnoc2)c(O)c(=O)n1C` [Example 78], the values for the IC50 (against full length human TREX1; in assay [1]) were less than 0.1 µM and 1 to 10 µM, respectively. For the same compound, the EC50 with HCT116 dual cells is 10 to 100 µM.

`Cc1nn(C)cc1-c1cncc(CN(C)c2nc(C(=O)Nc3cnoc3)c(O)c(=O)n2C)n1` [Example 79]: the IC50 was less than 0.1 µM against full length human TREX1 and 1 to 10 µM in assay [1]. For the same compound, the EC50 in the assay on HCT116 dual cells fell in the range of 10 to 100 µM.

Consider `Cc1nn(C)cc1-c1cnc(CN(C)c2nc(C(=O)Nc3cnoc3)c(O)c(=O)n2C)cn1` [Example 80], for which the IC50 on full length human TREX1 was less than 0.1 µM; in assay [1] it was 1 to 10 µM. Also, the EC50 in the assay with HCT116 dual cells is 10 to 100 µM.

The record behind these values is patent US20220289728A1, “MODULATORS OF TREX1” (Constellation Pharmaceuticals, Inc., priority 2019, published 2022).
